Read-outs that look alike come from different tables or passages of the source.
What was measured:
δ-opioid receptor = biological target: T1, δ-opioid receptor (Rattus norvegicus, UniProt P33533); assay: Rat brain δ-opioid receptor binding assay; details: for μ/δ (ratio of the μ-opioid receptor binding to the δ-opioid receptor binding): ratio of Ki μ to Ki δ, rat brain
T1 construct: the forebrains are homogenized in Tris buffer in a Teflon®-glass homogenizer; from tissue; host or cells: rat (male Wistar) forebrain, particulate membrane preparation
T1 sequence (P33533 whole entry): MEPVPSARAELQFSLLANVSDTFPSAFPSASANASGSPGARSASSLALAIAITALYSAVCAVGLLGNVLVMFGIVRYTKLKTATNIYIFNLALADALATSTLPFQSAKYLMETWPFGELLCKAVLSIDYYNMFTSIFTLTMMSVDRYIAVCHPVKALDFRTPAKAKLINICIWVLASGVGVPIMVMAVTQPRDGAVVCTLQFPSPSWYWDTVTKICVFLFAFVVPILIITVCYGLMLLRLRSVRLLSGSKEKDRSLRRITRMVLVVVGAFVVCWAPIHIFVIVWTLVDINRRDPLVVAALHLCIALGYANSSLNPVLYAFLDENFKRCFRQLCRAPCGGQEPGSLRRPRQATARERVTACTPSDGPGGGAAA
Experimental: Rat Brain δ-Opioid Receptor Binding Assay
Male, Wistar rats (150-250 g, VAF, Charles River, Kingston, N.Y.) are killed by cervical dislocation, and their brains removed and placed immediately in ice cold Tris HCl buffer (50 mM, pH 7.4). The forebrains are separated from the remainder of the brain by a coronal transection, beginning dorsally at the colliculi and passing ventrally through the midbrain-pontine junction. After dissection, the forebrains are homogenized in Tris buffer in a Teflon®-glass homogenizer. The homogenate is diluted to a concentration of 1 g of forebrain tissue per 100 mL Tris buffer and centrifuged at 39,000×G for 10 min. The pellet is resuspended in the same volume of Tris buffer with several brief pulses from a Polytron homogenizer. This particulate preparation is used for the δ-opioid binding assays. […] The tubes and filters are rinsed three times with 4 mL of 10 mM HEPES (pH 7.4), and the radioactivity associated with the filter circles determined using Formula 989 scintillation fluid (New England Nuclear, Boston, Mass.) in a scintillation counter.
(§1) The data are used to calculate either the % inhibition compared to control binding (when only a single concentration of test compound is evaluated) or a Ki value (when a range of concentrations is tested).
% Inhibition was calculated as follows: […]
Ki value is calculated using the LIGAND (Munson, P. J. and Rodbard, D., Anal. Biochem. 107: 220-239,1980) data analysis program.

μ-opioid receptor = biological target: T2, μ-opioid receptor (Rattus norvegicus, UniProt P33535); assay: Rat brain μ-opioid receptor binding assay
T2 construct: the forebrains are homogenized in Tris buffer in a Teflon®-glass homogenizer; from tissue; host or cells: rat (male Wistar) forebrain, particulate membrane preparation
T2 sequence (P33535 whole entry): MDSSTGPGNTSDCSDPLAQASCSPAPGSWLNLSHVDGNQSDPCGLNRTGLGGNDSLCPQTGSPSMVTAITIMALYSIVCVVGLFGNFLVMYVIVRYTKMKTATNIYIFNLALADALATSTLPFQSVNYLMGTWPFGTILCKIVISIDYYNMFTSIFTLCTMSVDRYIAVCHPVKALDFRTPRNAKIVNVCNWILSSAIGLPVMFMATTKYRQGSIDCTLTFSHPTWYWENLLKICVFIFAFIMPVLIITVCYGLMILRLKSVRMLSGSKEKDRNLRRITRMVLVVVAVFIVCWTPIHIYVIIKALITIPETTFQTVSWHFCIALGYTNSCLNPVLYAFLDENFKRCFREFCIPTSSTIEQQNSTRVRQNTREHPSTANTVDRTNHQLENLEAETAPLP
Experimental: Rat Brain μ-Opioid Receptor Binding Assay
Male, Wistar rats (150-250 g, VAF, Charles River, Kingston, N.Y.) are killed by cervical dislocation and their brains removed and placed immediately in ice cold Tris HCl buffer (50 mM, pH 7.4). The forebrains are separated from the remainder of the brain by a coronal transection, beginning dorsally at the colliculi and passing ventrally through the midbrain-pontine junction. After dissection, the forebrains are homogenized in Tris buffer in a Teflon®-glass homogenizer. The homogenate is diluted to a concentration of 1 g of forebrain tissue per 100 mL Tris buffer and centrifuged at 39,000×G for 10 min. The pellet is resuspended in the same volume of Tris buffer with several brief pulses from a Polytron homogenizer. This particulate preparation is used for the μ-opioid binding assays.
as §1
% Inhibition is calculated as follows: […]

[1] = rat forebrain particulate preparation, [3H]DAMGO, 25° C., read-out: Ki (nM) μ
[2] = rat forebrain particulate preparation, [3H]DPDPE, 25° C., read-out: Ki (nM) δ

## c1ccc(C(=C2CC3CCC(C2)N3)c2ccsc2)cc1 [Example 2, 3-(Phenyl-thiophen-3-yl-methylene)-8-aza-bicyclo[3.2.1]octane]
δ-opioid receptor
  Ki: 68 nM

## CC(C)=CCN1C2CCC1CC(=C(c1ccccc1)c1ccsc1)C2 [Example 3, 8-(3-Methyl-but-2-enyl)-3-(phenyl-thiophen-3-yl-methylene)-8-aza-bicyclo[3.2.1]octane]
δ-opioid receptor
  Ki: 21.1 nM
  μ/δ (ratio of the μ-opioid receptor binding to the δ-opioid receptor binding): 8.37
μ-opioid receptor; [1]
  Ki: 177 nM

## c1ccc(CCN2C3CCC2CC(=C(c2ccccc2)c2ccsc2)C3)cc1 [Example 4, 8-Phenethyl-3-(phenyl-thiophen-3-yl-methylene)-8-aza-bicyclo[3.2.1]octane]
δ-opioid receptor; [2]
  Ki: 903 nM
δ-opioid receptor
  μ/δ (ratio of the μ-opioid receptor binding to the δ-opioid receptor binding): 0.29
μ-opioid receptor; [1]
  Ki: 265 nM

## Cc1ccccc1CN1C2CCC1CC(=C(c1ccccc1)c1ccsc1)C2 [Example 5, 8-(2-Methyl-benzyl)-3-(phenyl-thiophen-3-yl-methylene)-8-aza-bicyclo[3.2.1]octane]
δ-opioid receptor; [2]
  Ki: 193 nM
δ-opioid receptor
  μ/δ (ratio of the μ-opioid receptor binding to the δ-opioid receptor binding): 21.28
μ-opioid receptor; [1]
  Ki: 4110 nM

## Clc1ccccc1CN1C2CCC1CC(=C(c1ccccc1)c1ccsc1)C2 [Example 6, 8-(2-Chloro-benzyl)-3-(phenyl-thiophen-3-yl-methylene)-8-aza-bicyclo[3.2.1]octane]
δ-opioid receptor; [2]
  Ki: 229 nM
μ-opioid receptor; [1]
  Ki: 1310 nM

## c1ccc(C(=C2CC3CCC(C2)N3Cc2cccs2)c2ccsc2)cc1 [Example 7, 3-(Phenyl-thiophen-3-yl-methylene)-8-thiophen-2-ylmethyl-8-aza-bicyclo[3.2.1]octane]
δ-opioid receptor
  Ki: 62.6 nM
  μ/δ (ratio of the μ-opioid receptor binding to the δ-opioid receptor binding): 6.69
μ-opioid receptor; [1]
  Ki: 418 nM

## Cc1ccsc1CN1C2CCC1CC(=C(c1ccccc1)c1ccsc1)C2 [Example 8, 8-(3-Methyl-thiophen-2-ylmethyl)-3-(phenyl-thiophen-3-yl-methylene)-8-aza-bicyclo[3.2.1]octane]
δ-opioid receptor
  Ki: 38.3 nM

## Cc1ccc(CN2C3CCC2CC(=C(c2ccccc2)c2ccsc2)C3)s1 [Example 9, 8-(5-Methyl-thiophen-2-ylmethyl)-3-(phenyl-thiophen-3-yl-methylene)-8-aza-bicyclo[3.2.1]octane]
δ-opioid receptor
  Ki: 38.8 nM
  μ/δ (ratio of the μ-opioid receptor binding to the δ-opioid receptor binding): 10.66
μ-opioid receptor; [1]
  Ki: 413 nM

## Oc1cccc(C(=C2CC3CCC(C2)N3)c2ccsc2)c1 [Example 20, 3-[(8-Aza-bicyclo[3.2.1]oct-3-ylidene)-thiophen-3-yl-methyl]-phenol]
δ-opioid receptor
  Ki: 6.27 nM
  μ/δ (ratio of the μ-opioid receptor binding to the δ-opioid receptor binding): 3.93
μ-opioid receptor
  Ki: 24.7 nM

## CC(C)=CCN1C2CCC1CC(=C(c1ccsc1)c1cccc(O)c1)C2 [Example 21, 3-{[8-(3-Methyl-but-2-enyl)-8-aza-bicyclo[3.2.1]oct-3-ylidene]-thiophen-3-yl-methyl}-phenol]
δ-opioid receptor
  Ki: 0.91 nM
  μ/δ (ratio of the μ-opioid receptor binding to the δ-opioid receptor binding): 7.8
μ-opioid receptor
  Ki: 7.1 nM

## C=CCN1C2CCC1CC(=C(c1ccsc1)c1cccc(O)c1)C2 [Example 22, 3-[(8-Allyl-8-aza-bicyclo[3.2.1]oct-3-ylidene)-thiophen-3-yl-methyl]-phenol]
δ-opioid receptor
  Ki: 1.69 nM
  μ/δ (ratio of the μ-opioid receptor binding to the δ-opioid receptor binding): 15.6
μ-opioid receptor
  Ki: 26 nM

## Oc1cccc(C(=C2CC3CCC(C2)N3CCc2ccccc2)c2ccsc2)c1 [Example 23, 3-[(8-Phenethyl-8-aza-bicyclo[3.2.1]oct-3-ylidene)-thiophen-3-yl-methyl]-phenol]
δ-opioid receptor; [2]
  Ki: 437 nM
μ-opioid receptor
  Ki: 37 nM

## Cc1ccccc1CN1C2CCC1CC(=C(c1ccsc1)c1cccc(O)c1)C2 [Example 24]
δ-opioid receptor
  Ki: 5.96 nM
  μ/δ (ratio of the μ-opioid receptor binding to the δ-opioid receptor binding): 8.15
μ-opioid receptor
  Ki: 48.6 nM

## Oc1cccc(C(=C2CC3CCC(C2)N3Cc2ccccc2Cl)c2ccsc2)c1 [Example 25, 3-{[8-(2-Chloro-benzyl)-8-aza-bicyclo[3.2.1]oct-3-ylidene]-thiophen-3-yl-methyl}-phenol]
δ-opioid receptor
  Ki: 1.69 nM
  μ/δ (ratio of the μ-opioid receptor binding to the δ-opioid receptor binding): 20.22
μ-opioid receptor
  Ki: 34.2 nM

## Oc1cccc(C(=C2CC3CCC(C2)N3Cc2cccs2)c2ccsc2)c1 [Example 26, 3-[Thiophen-3-yl-(8-thiophen-2-ylmethyl-8-aza-bicyclo[3.2.1]oct-3-ylidene)-methyl]-phenol]
δ-opioid receptor
  Ki: 0.17 nM
  μ/δ (ratio of the μ-opioid receptor binding to the δ-opioid receptor binding): 31.78
μ-opioid receptor
  Ki: 5.4 nM

## Cc1ccsc1CN1C2CCC1CC(=C(c1ccsc1)c1cccc(O)c1)C2 [Example 27, 3-{[8-(3-Methyl-thiophen-2-ylmethyl)-8-aza-bicyclo[3.2.1]oct-3-ylidene]-thiophen-3-yl-methyl}-phenol]
δ-opioid receptor
  Ki: 5.85 nM
  μ/δ (ratio of the μ-opioid receptor binding to the δ-opioid receptor binding): 5.20
μ-opioid receptor
  Ki: 30.4 nM

## Cc1ccc(CN2C3CCC2CC(=C(c2ccsc2)c2cccc(O)c2)C3)s1 [Example 28, 3-{[8-(5-Methyl-thiophen-2-ylmethyl)-8-aza-bicyclo[3.2.1]oct-3-ylidene]-thiophen-3-yl-methyl}-phenol]
δ-opioid receptor
  Ki: 1.65 nM
  μ/δ (ratio of the μ-opioid receptor binding to the δ-opioid receptor binding): 7.65
μ-opioid receptor
  Ki: 12.6 nM

## CC(C)=CCN1C2CCC1CC(=C(c1ccc(O)cc1)c1ccsc1)C2 [Example 38, 4-{[8-(3-Methyl-but-2-enyl)-8-aza-bicyclo[3.2.1]oct-3-ylidene]-thiophen-3-yl-methyl}-phenol]
δ-opioid receptor
  Ki: 5.37 nM
  μ/δ (ratio of the μ-opioid receptor binding to the δ-opioid receptor binding): 17.3
μ-opioid receptor
  Ki: 93 nM

## Oc1ccc(C(=C2CC3CCC(C2)N3CCc2ccccc2)c2ccsc2)cc1 [Example 39]
δ-opioid receptor
  Ki: 397 nM
  μ/δ (ratio of the μ-opioid receptor binding to the δ-opioid receptor binding): 0.42
μ-opioid receptor
  Ki: 166 nM

## Cc1ccccc1CN1C2CCC1CC(=C(c1ccc(O)cc1)c1ccsc1)C2 [Example 40, 4-{[8-(2-Methyl-benzyl)-8-aza-bicyclo[3.2.1]oct-3-ylidene]-thiophen-3-yl-methyl}-phenol]
δ-opioid receptor
  Ki: 35.7 nM
  μ/δ (ratio of the μ-opioid receptor binding to the δ-opioid receptor binding): 1.82
μ-opioid receptor
  Ki: 64.8 nM

## Oc1ccc(C(=C2CC3CCC(C2)N3Cc2ccccc2Cl)c2ccsc2)cc1 [Example 41, 4-{[8-(2-Chloro-benzyl)-8-aza-bicyclo[3.2.1]oct-3-ylidene]-thiophen-3-yl-methyl}phenol]
δ-opioid receptor
  Ki: 12.5 nM
  μ/δ (ratio of the μ-opioid receptor binding to the δ-opioid receptor binding): 2.91
μ-opioid receptor
  Ki: 36.5 nM

## Oc1ccc(C(=C2CC3CCC(C2)N3Cc2cccs2)c2ccsc2)cc1 [Example 42, 4-[Thiophen-3-yl-(8-thiophen-2-ylmethyl-8-aza-bicyclo[3.2.1]oct-3-ylidene) -methyl]phenol]
δ-opioid receptor
  Ki: 2.92 nM
  μ/δ (ratio of the μ-opioid receptor binding to the δ-opioid receptor binding): 30.54
μ-opioid receptor
  Ki: 89.2 nM

## Cc1ccsc1CN1C2CCC1CC(=C(c1ccc(O)cc1)c1ccsc1)C2 [Example 43, 4-{[8-(3-Methyl-thiophen-2-ylmethyl)-8-aza-bicyclo[3.2.1]oct-3-ylidene]-thiophen-3-yl-methyl}-phenol]
δ-opioid receptor
  Ki: 31.4 nM
  μ/δ (ratio of the μ-opioid receptor binding to the δ-opioid receptor binding): 5.94
μ-opioid receptor; [1]
  Ki: 187 nM

## Cc1ccc(CN2C3CCC2CC(=C(c2ccc(O)cc2)c2ccsc2)C3)s1 [Example 44, 4-{[8-(5-Methyl-thiophen-2-ylmethyl)-8-aza-bicyclo[3.2.1]oct-3-ylidene]-thiophen-3-yl-methyl}-phenol]
δ-opioid receptor
  Ki: 9.04 nM
  μ/δ (ratio of the μ-opioid receptor binding to the δ-opioid receptor binding): 8.33
μ-opioid receptor
  Ki: 75.2 nM

Reference: patent US7435822B2, “3-(diheteroarylmethylene)-8-azabicyclo[3.2.1]octane and 3-((aryl)(heteroaryl)methylene)-8-azabicyclo[3.2.1]octane derivatives” (Janssen Pharmaceutica N.V., priority 2004, dated 2008)
